Assay results reported in PubChem BioAssay (NCI).
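Test compounds were applied to cells in 96-well plates for 48 hours at 5 doses. GI50 is the concentration that inhibits growth by half. The concentration for full growth arrest is given as TGI.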

Legend:
Assay in all cases: DTP human tumour cell line panel, 48 h
HCC-2998 colon = system: HCC-2998 colon
SN12C renal = system: SN12C renal
M14 melanoma = system: M14 melanoma
HT29 colon = system: HT29 colon
OVCAR-8 ovarian = system: OVCAR-8 ovarian
OVCAR-5 ovarian = system: OVCAR-5 ovarian
SK-OV-3 ovarian = system: SK-OV-3 ovarian
U251 CNS = system: U251 CNS
NCI-H23 lung = system: NCI-H23 lung
786-0 renal = system: 786-0 renal
NCI-H460 lung = system: NCI-H460 lung
SK-MEL-2 melanoma = system: SK-MEL-2 melanoma
A498 renal = system: A498 renal
OVCAR-3 ovarian = system: OVCAR-3 ovarian
LOX IMVI melanoma = system: LOX IMVI melanoma
SK-MEL-5 melanoma = system: SK-MEL-5 melanoma
NCI/ADR-RES ovarian = system: NCI/ADR-RES ovarian
SNB-19 CNS = system: SNB-19 CNS
T-47D breast = system: T-47D breast
SNB-75 CNS = system: SNB-75 CNS
SF-295 CNS = system: SF-295 CNS
A549 NSCLC = system: A549 NSCLC
CAKI-1 renal = system: CAKI-1 renal
TK-10 renal = system: TK-10 renal
RXF 393 renal = system: RXF 393 renal
COLO 205 colon = system: COLO 205 colon
SF-268 CNS = system: SF-268 CNS
HS 578T breast = system: HS 578T breast
MCF7 breast = system: MCF7 breast
UACC-257 melanoma = system: UACC-257 melanoma
SF-539 CNS = system: SF-539 CNS
KM12 colon = system: KM12 colon
UACC-62 melanoma = system: UACC-62 melanoma
K-562 leukemia = system: K-562 leukemia
MOLT-4 leukemia = system: MOLT-4 leukemia
SR leukemia = system: SR leukemia
SW-620 colon = system: SW-620 colon
DU-145 prostate = system: DU-145 prostate
HOP-62 NSCLC = system: HOP-62 NSCLC
NCI-H226 lung = system: NCI-H226 lung
CCRF-CEM leukemia = system: CCRF-CEM leukemia
PC-3 prostate = system: PC-3 prostate
RPMI-8226 leukemia = system: RPMI-8226 leukemia
MDA-MB-435 = system: MDA-MB-435
HOP-92 NSCLC = system: HOP-92 NSCLC
MDA-MB-231 breast = system: MDA-MB-231 breast
OVCAR-4 ovarian = system: OVCAR-4 ovarian

## COC(=O)c1ccc(NC2=C(Cl)C(=O)C(C)=C(C)C2=O)cc1
HCC-2998 colon
  GI50: 3.84 µM
  TGI: > 100 µM
SN12C renal
  GI50: 9.11 µM
  TGI: > 100 µM
M14 melanoma
  GI50: 2.84 µM
  TGI: 40.5 µM
HT29 colon
  GI50: 6.64 µM
  TGI: > 100 µM
OVCAR-8 ovarian
  GI50: 6.89 µM
  TGI: > 100 µM
OVCAR-5 ovarian
  GI50: 6.08 µM
  TGI: > 100 µM
SK-OV-3 ovarian
  GI50: 5.13 µM
  TGI: > 100 µM
U251 CNS
  GI50: 3.77 µM
  TGI: > 100 µM
NCI-H23 lung
  GI50: 3.77 µM
  TGI: > 100 µM
786-0 renal
  GI50: 15.1 µM
  TGI: > 100 µM
NCI-H460 lung
  GI50: 4.7 µM
  TGI: > 100 µM
SK-MEL-2 melanoma
  GI50: 3.2 µM
  TGI: > 100 µM
A498 renal
  GI50: 2.06 µM
  TGI: 96.7 µM
OVCAR-3 ovarian
  GI50: 1.81 µM
  TGI: 3.3 µM
LOX IMVI melanoma
  GI50: 1.81 µM
  TGI: 3.41 µM
SK-MEL-5 melanoma
  GI50: 1.92 µM
  TGI: 4.08 µM
NCI/ADR-RES ovarian
  GI50: 2.65 µM
  TGI: 10.9 µM
SNB-19 CNS
  GI50: 3.32 µM
  TGI: > 100 µM
T-47D breast
  GI50: 1.74 µM
  TGI: 4.72 µM
SNB-75 CNS
  GI50: 1.6 µM
  TGI: 7.31 µM
SF-295 CNS
  GI50: 2.18 µM
  TGI: 6.64 µM
A549 NSCLC
  GI50: 5.25 µM
  TGI: > 100 µM
CAKI-1 renal
  GI50: 2.95 µM
  TGI: > 100 µM
TK-10 renal
  GI50: > 100 µM
  TGI: > 100 µM
RXF 393 renal
  GI50: 1.75 µM
  TGI: 4.25 µM
COLO 205 colon
  GI50: 7.69 µM
  TGI: > 100 µM
SF-268 CNS
  GI50: 3.79 µM
  TGI: > 100 µM
HS 578T breast
  GI50: 4 µM
  TGI: 93.8 µM
MCF7 breast
  GI50: 2.66 µM
  TGI: > 100 µM
UACC-257 melanoma
  GI50: 3.07 µM
  TGI: > 100 µM
SF-539 CNS
  GI50: 2.33 µM
  TGI: 5.91 µM
KM12 colon
  GI50: 2.06 µM
  TGI: 4.64 µM
UACC-62 melanoma
  GI50: 1.77 µM
  TGI: 5.53 µM
K-562 leukemia
  GI50: 1.58 µM
  TGI: 5.31 µM
MOLT-4 leukemia
  GI50: 1.43 µM
  TGI: 5.13 µM
SR leukemia
  GI50: 1.22 µM
  TGI: 4.02 µM
SW-620 colon
  GI50: 2.1 µM
  TGI: 4.42 µM
DU-145 prostate
  GI50: 11.2 µM
  TGI: > 100 µM
HOP-62 NSCLC
  GI50: 5.52 µM
  TGI: > 100 µM
NCI-H226 lung
  GI50: 5.82 µM
  TGI: > 100 µM
CCRF-CEM leukemia
  GI50: 1.08 µM
  TGI: 4.98 µM
PC-3 prostate
  GI50: 2.63 µM
  TGI: > 100 µM
RPMI-8226 leukemia
  GI50: 2.19 µM
  TGI: 5.29 µM
MDA-MB-435
  GI50: 1.84 µM
  TGI: 8.73 µM
HOP-92 NSCLC
  GI50: 1.46 µM
  TGI: 3.11 µM
MDA-MB-231 breast
  GI50: 2.68 µM
  TGI: 7.71 µM
OVCAR-4 ovarian
  GI50: 1.73 µM
  TGI: 3.14 µM
